Results: US20090111177A1, “Maintenance of Embryonic Stem Cells by the GSK-3 Inhibitor 6-Bromoindirubin-3'-Oxime” (THE ROCKEFELLER UNIVERSITY, priority 2003, published 2009)

Tests used:
HESCs (H1, BGN1) = experiment: Feeder-free culture of HESCs, undifferentiated morphology; format: cell-based, human; settings: for morphology / undifferentiated phenotype of HESCs: feeder-free, non-conditioned medium, 6-bromoindirubin-3′-oxime and Me analogue 2 μM, LiCl 5 mM, Wnt3a protein
Procedure: (§1) Cell culture. Human embryonic stem cells (HESCs) lines were provided by WiCell Research Institute (H1 line)^5 and BresaGen Inc. (BGN1 and BGN2 lines). H1 cells were cultivated on irradiated mouse embryonic fibroblasts (MEFs) in medium consisting of 80% DMEM/F12 medium, 20% knockout serum replacement (KSR), 1 mM L-glutamine, 1% non-essential amino acids, 0.1 mM β-mercaptoethanol, and 4 ng/ml basic FGF (all from Invitrogen). […] Subsequently, HESCs were cultured on Matrigel (BD biosciences) in medium conditioned by MEFs, and passaged several times until colonies became free from contaminating MEFs as described before^9.

[1] = test system: canonical Wnt pathway (TCF binding sites, TopFlash); experiment: TopFlash/FopFlash luciferase reporter assay in CJ7 cells (MESCs); format: cell-based, mouse; settings: CJ7 cells (MESCs); FIG. 2b
Procedure: (§2) Luciferase assay. […] Test compounds were added 24 hrs after transfection. Following incubation for 24 hrs, cells were harvested, and analyzed by the dual luciferase reporter assay system (Promega) using Lumat (Berthold Technologies). Each value was standardized by Renilla luciferase activity.
The canonical Wnt signal occurs through binding of the Wnt protein to the Frizzled receptor at cell surface. It is followed by inactivation of GSK-3, leading to accumulation of β-catenin in the nucleus that activates the transcription of Wnt target genes in collaboration with TCFs^18,19. Alternatively, Wnt signaling can be activated by direct, intracellular inhibition of the GSK-3 function using specific inhibitors^20. […] First we examined whether mouse and human ESCs were capable of transducing Wnt signaling under the influence of 6-bromoindirubin-3′-oxime. […] We then evaluated expression of β-catenin at the cellular level as a read-out of the activation status of the canonical Wnt pathway in HESCs.

Oct-3/4 = Oct-3/4 immunocytochemistry in HESCs; format: cell-based, human; settings: HESCs in non-conditioned medium; FIG. 4c
Procedure: as §1
Immunofluorescence. Cells were fixed in 4% paraformaldehyde for 20 min at room temperature and incubated overnight at 4° C. with primary antibodies against Oct-4 (BD Biosciences), β-catenin (BD Biosciences), Tuj-1 (BAbCO), cytokeratin (Sigma), glial fibrillary acidic protein, GFAP, (Dako), smooth muscle actin (Research Diagnostics Inc), α-fetoprotein (α-FP, Cell Sciences) and Tromal (Developmental Studies Hybridoma Bank). For nuclear localization analysis, the fixed samples were subjected to fluorescent digital confocal imaging analysis using a Zeiss LSM 510 confocal microscope (Carl Zeiss). For mouse embryonic tissue sections, mid gestation embryos were fixed in 4% paraformaldehyde followed by paraffin embedding and tissue sectioning. After deparaffinization, tissue sections were incubated with a GFP-specific antibody (Molecular Probe) at 4° C. overnight. Antigens were localized by using goat anti-mouse IgG conjugated to Cy3 or goat anti-rabbit IgG conjugated to Cy2 (Zymed laboratories). For the quantitative image analysis, fluorescent images from triplicate samples were taken by the Discovery1 system (Universal Imaging Corporation). The fluorescent objects were selected by the threshold function and evaluated in five regions of each well by quantification of pixel intensities and the object size by using MetaMorph software (Universal Imaging Corporation).

Rex-1 promoter [2] = experiment: Rex-1 luciferase reporter assay in CJ7 cells; format: cell-based, mouse; settings: CJ7 cells; compared to LIF-treated cells
Excerpt: Nat Biotechnol 20, 87-90), a small fragment containing the TCF binding sites and the cFos promoter in pTopFlash was excised by XbaI digestion, and cloned into pcDNA3-Venus in which Venus was introduced into the multiple cloning site between BamHI and EcoRI of the pcDNA3 vector (Invitrogen) whose CMV promoter was eliminated by BglII and HindIII digestion. […] To generate the Rex-1-Venus reporter construct, the Rex-1 promoter region was cloned into pcDNA3-Venus.
as §2

GSK-3 = settings: from reference 10; cited from earlier work
CJ-GFP cells (MESCs) = experiment: Low-density culture of CJ-GFP MESCs without LIF, morphology; format: cell-based, mouse; settings: 1 μM; 7 d plus 5 d at low density; data not shown for Me analogue
Procedure: Teratoma formation. We grew CJ-GFP cells at a low density (500 cells/cm^2) on gelatin-coated 10 cm dishes in medium containing 6-bromoindirubin-3′-oxime 1 μM for 7 d, then passaged cells at the same density and cultured under the same condition another 5 d to further enforce differentiation of cells.

β-catenin = β-catenin immunofluorescence confocal analysis in HESCs; format: cell-based, human; settings: compared to non-conditioned medium treated cells, FIG. 2c
Procedure: as §1
Immunofluorescence. […] For the quantitative image analysis, fluorescent images from triplicate samples were taken by the Discovery1 system (Universal Imaging Corporation). The fluorescent objects were selected by the threshold function and evaluated in five regions of each well by quantification of pixel intensities and the object size by using MetaMorph software (Universal Imaging Corporation).

Rex-1 promoter [3] = experiment: Rex-1 YFP reporter line CJRex-Y (imaging / FACS); format: cell-based, mouse; settings: CJRex-Y cells, 5 d
Procedure: Generation of stable mouse ES lines. CJ7 ES cells were transfected with pRex-1-Venus, pTY or pCAG-HygEGFP by using Lipofectamine 2000 (Invitrogen) followed by G418 (Invitrogen) selection at 200 μg/ml (for CJRex-Y or CJ-TY) or hygromycine (Invitrogen) selection at 600 μg/ml (for CJ-GFP). Two weeks after the drug selection, a number of single colonies were picked up, expanded and used for the further analyses.
FACS analysis of MESCs. We cultured CJRex-Y cells at a low density (500 cells/cm^2) on gelatin-coated 10 cm dishes in mouse ES cell medium alone, medium containing LIF, medium conditioned from wild type L cells or medium conditioned from Wnt3a-L cells (ATCC) for 5 days. The Wnt3a conditioned medium was prepared according to the provider's protocol. Cells were harvested, resuspended in mouse ES medium and subjected to FACS analysis using FACSVantage SE system (BD Biosciences).

cyclin D1 = cyclin D1 immunofluorescence in HESCs; format: cell-based, human; settings: HESCs (BGN2); non-CM; 6-bromoindirubin-3′-oxime 1.0 μM or Wnt3a protein 100 ng; FIG. 7
Procedure: Immunofluorescence. HESCs were grown in conditioned medium (CM), non-CM, non-CM containing Me 6-bromoindirubin-3′-oxime (1.0 μM), non-CM containing 6-bromoindirubin-3′-oxime (1.0 μM) or non-CM containing recombinant mouse Wnt3a protein (100 ng/ml, R&D systems) for 5 d. Cells were fixed in 4% paraformaldehyde for 20 min at room temperature and incubated overnight at 4° C. with primary antibodies against cyclin D1 (Santa Cruz Technology, Santa Cruz, Calif.). Antigens were localized by using goat anti-rabbit IgG conjugated to Cy3 (Zymed laboratories).

[Cl-].[Li+] [LiCl, reference compound]
toxicity to HESCs (HESCs (H1, BGN1); 10 mM, FIG. 4c): substantial toxicity | morphology / undifferentiated phenotype of HESCs (HESCs (H1, BGN1); 7 d): failed to maintain the undifferentiated phenotype

CN1C(=O)C(=C2Nc3ccccc3C2=NO)c2ccc(Br)cc21 [Me 6-bromoindirubin-3′-oxime, 1-methyl-6-bromoindirubin-3′-oxime, reference compound]
TopFlash reporter activity [1]: did not show any change in activity | Oct-3/4 expression at the cellular level (Oct-3/4): remarkable reduction of Oct-3/4 expression | Rex-1 promoter activity (Rex-1 promoter [2]): slightly reduced | GSK-3 / kinase inhibition (GSK-3): kinase-inactive | colony morphology of MESCs without LIF (CJ-GFP cells (MESCs)): large flat differentiated morphology | nuclear accumulation of β-catenin (β-catenin): did not show obvious difference | morphology / undifferentiated phenotype of HESCs (HESCs (H1, BGN1); 7 d): fully flattened morphology | colony morphology / cell shape (Rex-1 promoter [3]; FIG. 3b): flattened cell shape | Rex-1 transcriptional (YFP reporter) activity (Rex-1 promoter [3]; absence of LIF): substantially lower activity

Human-derived LIF: Human-derived LIF
prevention of HESC differentiation in non-conditioned medium (HESCs (H1, BGN1); LIF up to 2,000 to 3,000 U/ml, 7 d): failed to prevent the differentiation

Wnt3a
Oct-3/4 expression at the cellular level (Oct-3/4): high level of Oct-3/4 expression | cyclin D1 expression (cyclin D1): up-regulated cyclin D1 expression | morphology / undifferentiated phenotype of HESCs (HESCs (H1, BGN1); 7 d): maintain compact undifferentiated colonies
